Read-outs that look alike come from different tables or passages of the source.
Assays:
[1] = target: T1, BRD2 BD2 (Homo sapiens (Human), UniProt P25440); assay: FP competitive binding assay using Cpd. No. 350 as the probe
Description: (§8) Fluorescence Polarization (FP) competitive binding studies (see above) were carried out using the FAM labeled fluorescent probe Cpd. No. 350 to determine binding affinities of representative compounds to both BD1 and BD2 of BRD2, BRD3, and BRD4 proteins. Equilibrium dissociation constants (Id) values of Cpd. No. 350 to these six proteins were determined from protein saturation experiments by monitoring the total fluorescence polarization of mixtures composed with the fluorescent probe at a fixed concentration and proteins with increasing concentrations up to full saturation. Serial dilutions of testing protein were mixed with Cpd. No. 350 to a final volume of 200 μl in the assay buffer. […] Plates were incubated at room temperature for 30 minutes with gentle shaking to assure equilibrium. […] Kd values of Cpd.
(§9) The IC50 and Ki values of compounds were determined in a competitive binding experiment as described above. […] FP values were measured as described above. IC50 values were determined by nonlinear regression fitting of the competition curves.

[2] = target: T2, BRD4 BD2 (Homo sapiens (Human), UniProt O60885); assay: as above
Description: as §8, §9

[3] = test system: leukemia MOLM-13 cell line; assay: 4-day cell viability assay, CellTiter-Glo; format: cell-based; settings: 4 days, read-out: Cell Growth Inhibition (IC50 (nM)) MOLM-13 Cell Line (CellTiter-Glo assay)
Description: (§1) The effect of representative BET bromodomain inhibitors on cell viability was determined in a 4-day proliferation assay. Cells were maintained in the appropriate culture medium with 10% FBS at 37° C. and an atmosphere of 5% CO2. All the cell lines were used within three months of thawing fresh vials.
(§2) Cells were seeded in 96-well flat bottom (Corning COSTAR, Corning, N.Y., cat#3595) or white opaque cell culture plates (BD Falcon, cat#353296) at a density of 3,000-10,000 cells/well in 75 μl of culture medium. Compounds were serially diluted in the appropriate medium, and 75 μl of the diluted compounds were added to the appropriate wells of the cell plate. After the addition of compounds, the cells were incubated at 37° C. in an atmosphere of 5% CO2 for 4 days. Cell viability was determined using the CellTiter-Glo® Luminescent Cell Viability Assay Kit (Promega, Madison, Wis.) for MOLM-13 cells and WST (2-(2-methoxy-4-nitrophenyl)-3-(4-nitrophenyl)-5-(2,4-disulfophenyl)-2H-tetrazolium, monosodium salt) Cell Counting-8 Kit (Dojindo Molecular Technologies, Inc., Rockville, Md.) for MDA-MB-436 cells according to the manufacturers' instructions.
For the CellTiter-Glo assay, 100 μl of CellTiter-Glo® Reagent was added to each well, and then the plates were incubated at room temperature for 10-20 minutes. The luminescent signal was measured using a Tecan Infinite M1000 multimode microplate reader (Tecan, Morrisville, N.C.). The readings were normalized to the DMSO-treated cells and the IC50 was calculated by nonlinear regression (four parameters sigmoid fitted with variable slope, least squares fit, and no constraint) analysis using the GraphPad Prism 5 software.

[4] = target: T3, BRD4 BD1 (Homo sapiens (Human), UniProt O60885); assay: OctetRED biolayer interferometry (BLI) binding assay
Description: (§3) Binding affinities of synthesized compounds to BRD2 BD1 and BD2, BRD3 BD1 and BD2, and BRD4 BD1 and BD2 were also determined by a label free binding assay using the OctetRED label free biolayer interferometry (BLI) binding assay.
(§4) BLI measures interference pattern changes of light reflected from an optical layer and a biolayer containing protein targets only or complexed with interacting partners. The assay principle is similar to the surface plasmon resonance (SPR) assay in which the target protein is immobilized on an optical surface and then exposed to potential binding partners in solution. The interaction between the binding partner and the immobilized protein changes the optical properties of the biosensors, resulting in the wavelength shift of reflecting light which will change the interference pattern. Association and dissociation rates can be obtained by fitting the real time wavelength shift of the based on a proper binding model, from which KD values can be obtained thereafter.
(§5) Biotin labeled BRD proteins (10 μg/ml) in kinetic assay buffer (PBS, pH 7.4, 0.1% BSA and 0.01% Tween-20) were immobilized on Super Streptavidin (SSA) sensors for 15 minutes followed by washing in kinetic buffer for 10 minutes to eliminate any loose non-specific immobilization. […] These protein coated sensors were then immersed into the testing compound solutions, starting from the one with the lowest concentration, where compound association occurs and then returned to the fresh buffer for the dissociation. The same operation was repeated for the next solution with higher concentration up to the one with the highest concentration. […] For each kinetic cycle, kinetic curves for association and dissociation were obtained from raw sensorgrams by using the double reference subtraction protocol included in the analysis program (Data Analysis 7.0) provided by the manufacturer, in which nonspecific interaction and buffer drift were both corrected. The association and dissociation rate constants (kon and koff) were determined using the global fitting protocol in the analysis program based on a reversible 1:1 binding model. The equilibrium association constant (KA) was calculated thereafter. All binding data were collected at 30 degree. Assay plates were kept being shaken at 1000 RPM in the whole experiment time period to avoid mass transport effect.

[5] = target: T4, BRD2 BD1 (Homo sapiens (Human), UniProt P25440); assay: as above
T4 sequence (P25440 74-180): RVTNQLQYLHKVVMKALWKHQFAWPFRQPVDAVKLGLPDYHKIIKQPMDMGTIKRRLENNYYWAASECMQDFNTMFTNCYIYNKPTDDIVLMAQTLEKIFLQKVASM
Description: as §3, §4, §5

[6] = target: T2, BRD4 BD2; assay: as above
Description: as §3, §4, §5

[7] = target: T4, BRD2 BD1; assay: FP competitive binding assay using Cpd. No. 350 as the probe
Description: as §8, §9

[8] = test system: K562; assay: Cell growth inhibition in leukemia cell line; format: cell-based; settings: Homo sapiens
[9] = target: T3, BRD4 BD1; assay: FP competitive binding assay using Cpd. No. 350 as the probe
Description: as §8, §9

[10] = test system: MV4;11; assay: Cell growth inhibition in leukemia cell line; format: cell-based
[11] = test system: AML-2; assay: Cell growth inhibition in leukemia cell line; format: cell-based
Description: as §1, §2

[12] = test system: prostate VCaP cell line; assay: Cell growth inhibition, Cell TiterGLO, 4 days; format: cell-based; settings: Homo sapiens, VCaP, 96 h, treated 4 days, read-out: VCaP cells (IC50 (nM))
[13] = target: T1, BRD2 BD2; assay: OctetRED biolayer interferometry (BLI) binding assay
Description: as §3, §4, §5

[14] = target: T5, BRD3 BD2 (Homo sapiens (Human), UniProt Q15059); assay: as above
T5 sequence (Q15059 306-415): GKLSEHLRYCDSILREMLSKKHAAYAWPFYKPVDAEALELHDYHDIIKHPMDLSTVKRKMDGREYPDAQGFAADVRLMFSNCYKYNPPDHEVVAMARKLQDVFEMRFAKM
Description: as §3, §4, §5

[15] = target: T6, BRD3 BD1 (Homo sapiens (Human), UniProt Q15059); assay: as above
T6 sequence (Q15059 34-140): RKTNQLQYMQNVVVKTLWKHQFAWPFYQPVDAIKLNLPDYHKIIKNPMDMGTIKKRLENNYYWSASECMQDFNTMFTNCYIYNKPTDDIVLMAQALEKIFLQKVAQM
Description: as §3, §4, §5

[16] = test system: breast cancer MDA-MB-436 cell line; assay: 4-day cell viability assay, WST; format: cell-based; settings: Homo sapiens, MDA-MB-436, 96 h; 4 days; read-out: Cell Growth Inhibition (IC50 (nM)) MDA-436 Cell Line (WST assay)
Description: as §1, §2
For the WST assay, WST-8 reagent was added to each well at a final concentration of 10% (v/v), and then the plates were incubated at 37° C. for 1-2 hours for color development. The absorbance was measured at 450 nm using a SPECTRAmax PLUS plate reader (Molecular Devices, Sunnyvale, Calif.). The readings were normalized to the DMSO-treated cells and the half maximal inhibitory concentration (IC50) was calculated by nonlinear regression (four parameters sigmoid fitted with variable slope, least squares fit, and no constraint) analysis using the GraphPad Prism 5 software (GraphPad Software, La Jolla, Calif.).

[17] = test system: MOLM-13; assay: Cell growth inhibition, CellTiter-Glo, acute leukemia cell line; format: cell-based; settings: Homo sapiens, MOLM-13, 96 h, 4 days
Description: (§6) Cell growth inhibitory activity of representative BET bromodomain inhibitors was determined using CellTiter-Glo® Luminescent Cell Viability Assay. For leukemia cell lines MV-4-11 (ATCC, Manassas, Va.) and MOLM-13 (DSMZ, Germany), cells were seeded in 96-well white opaque cell culture plates at a density of 10,000 cells/well with serially diluted compounds and incubated at 37° C. in an atmosphere of 95% air and 5% CO2 for 4 days. Cell viability was determined using the CellTiter-Glo® Luminescent Cell Viability Assay Kit (Promega, Madison, Wis.) according to the manufacture's instruction. Briefly, a volume of CellTiter-Glo® Reagent equal to the volume of cell culture medium was added to each well, and then the plates were incubated at room temperature for 10-20 minutes. The luminescent signal was measured using a Tecan Infinite M1000 multimode microplate reader (Tecan, Morrisville, N.C.). The half maximal inhibitory concentration (IC50) was calculated using the GraphPad Prism 5 software (GraphPad Software, La Jolla, Calif.).

[18] = test system: MV-4-11; assay: as above; format: cell-based; settings: Homo sapiens, MV4-11, 96 h, 4 days
Description: as §6

[19] = target: T3, BRD4 BD1; assay: FP protein saturation experiment with probe Cpd. No. 350; format: binding; settings: probe 1.5 nM
Description: (§7) Fluorescence Polarization (FP) competitive binding studies (see above) were carried out using the FAM labeled fluorescent probe Cpd. No. 350 to determine binding affinities of representative compounds to both BD1 and BD2 of BRD2, BRD3, and BRD4 proteins. Equilibrium dissociation constants (Id) values of Cpd. […] Final Cpd. […] Kd values of Cpd.

[20] = target: T4, BRD2 BD1; assay: as above; format: binding; settings: probe 1.5 nM
Description: as §7

[21] = target: T2, BRD4 BD2; assay: as above; format: binding; settings: probe 1.5 nM
Description: as §7

[22] = target: T1, BRD2 BD2; assay: as above; format: binding; settings: probe 1.5 nM
Description: as §7

[23] = target: T5, BRD3 BD2; assay: as above; format: binding; settings: probe 1.5 nM
Description: as §7

[24] = target: T6, BRD3 BD1; assay: as above; format: binding; settings: probe 1.5 nM
Description: as §7

[25] = Homo sapiens, MV4-11, cell growth inhibition

T1 sequence (P25440 344-453): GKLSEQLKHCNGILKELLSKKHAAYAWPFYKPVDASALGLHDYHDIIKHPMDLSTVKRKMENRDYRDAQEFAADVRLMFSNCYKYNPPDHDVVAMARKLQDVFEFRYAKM

SMILES	Ki [1] [nM]	Ki [2] [nM]	IC50 ([3]; Homo sapiens, MOLM-13, 96 h) [nM]	Kd [4] [nM]	Kd [5] [nM]	Kd [6] [nM]	Ki [7] [nM]	IC50 [8] [nM]	Ki [9] [nM]	IC50 [10, 25] [nM]	IC50 [11] [nM]	Kd [13] [nM]	other results
CCc1n[nH]c(CC)c1-c1nccc2[nH]c3cc(-c4c(C)noc4C)c(OC)cc3c12 [Cpd. No. 23, 4-(1-(3,5-diethyl-1H-pyrazol-4-yl)-8-methoxy-5H-pyrido[4,3-b]indol-7-yl)-3,5-dimethylisoxazole]	11.7 ± 3	12.2 ± 1.6	104 ± 16	29 ± 8.8	25.6 ± 3.7	12.9 ± 2.1	11.1 ± 1	> 2000	24.7 ± 1	17 ± 3	104 ± 5	–	IC50 [12]: 117 nM
COc1cc2c(cc1-c1c(C)noc1C)[nH]c1ccnc(-c3c(C)n[nH]c3C)c12 [Cpd. No. 22, 4-(1-(3,5-dimethyl-1H-pyrazol-4-yl)-8-methoxy-5H-pyrido[4,3-b]indol-7-yl)-3,5-dimethylisoxazole]	15.4 ± 3.2	16.1 ± 2.8	–	40 ± 6.4	34 ± 2.1	27.9 ± 6.8	21 ± 3.3	> 2000	44.1 ± 6.4	–	101 ± 22	24.4 ± 6.2	IC50 [3]: 183 ± 38 nM; Kd [14]: 18.7 ± 4.9 nM; Kd [15]: 17.9 ± 8.8 nM; IC50 ([10]; cell growth inhibition): 61 ± 28 nM
COc1cc2c(cc1-c1c(C)noc1C)[nH]c1ccnc(-c3c(C)nn(C)c3C)c12 [Cpd. No. 25, 4-(8-methoxy-1-(1,3,5-trimethyl-1H-pyrazol-4-yl)-5H-pyrido[4,3-b]indol-7-yl)-3,5-dimethylisoxazole]	22.2 ± 2.8	–	343 ± 5	–	41.2 ± 2.2	–	12.2 ± 1.7	> 2000	–	65 ± 24	163 ± 2	35.9 ± 8.8	IC50 [16]: 119 nM
COc1cc2c(cc1-c1c(C)noc1C)[nH]c1ncnc(-c3c(C)[nH]c4ccccc34)c12 [Cpd. No. 44]	–	–	–	27 ± 14.5	33.8 ± 8.2	10.2 ± 4.5	–	–	–	–	–	11 ± 4.7	Kd ([14]; BLI, read-out: Kd (nM) BRD3 BD2): 10.6 ± 1.1 nM; Kd ([15]; BLI, read-out: Kd (nM) BRD3 BD1): 17 ± 7 nM; IC50 [17]: < 100 nM; IC50 [18]: < 100 nM
COc1cc2c(cc1-c1c(C)noc1C)[nH]c1nc(C(=O)NC3CCN(CCCNC(=O)c4ccc(-c5c6ccc(=O)cc-6oc6cc(O)ccc56)c(C(=O)O)c4)CC3)nc(-c3ccnc4ccc(F)cc34)c12 [Cpd. No. 350]	–	–	–	–	–	–	–	–	–	–	–	–	Kd [19]: 5.5 nM; Kd [20]: 2 nM; Kd [21]: 3 nM; Kd [22]: 2.2 nM; Kd [23]: 0.6 nM; Kd [24]: 6.5 nM
